Assay results reported in patent US20250205268A1, “TREATMENT OF VIRUSES WITH ANTIVIRAL NUCLEOSIDES” (priority 2021, published 2025).
“Also recorded” adds a separate entry of the source. Read-outs that look alike come from different tables or passages of the source.

Tests used:
SARS-CoV-2 [1] = format: in vivo; details: for WHO Clinical Progression Scale, participants in score category 0 / WHO Clinical Progression Scale, participants in score category 1-3 / WHO Clinical Progression Scale, participants in score category 4-5 / WHO Clinical Progression Scale, participants in score category 6-9 / WHO Clinical Progression Scale, participants in score category 10: final MITT; for WHO Clinical Progression Scale, odds ratio (95% CI): proportional odds model
SARS-CoV-2 [2] = system: SARS-CoV-2
SARS-CoV-2 [3] = format: in vivo
SARS-CoV-2 [4] = format: in vivo; remark: listed apart in the source
[5] = MITT population, through day 29
[6] = safety population, all postbaseline visits through day 29
[7] = subgroup hospitalized after randomization, vs placebo
[8] = Part 2 interim analysis, MITT, 800 mg twice daily 5 days
[9] = Part 2 interim analysis, versus placebo

CC(C)C(=O)OC[C@H]1O[C@@H](n2ccc(NO)nc2=O)[C@H](O)[C@@H]1O [Compound A, {(2R,3S,4R,5R)-3,4-dihydroxy-5-[4-(hydroxyimino)-2-oxo-3,4-dihydropyrimidin-1 (2H)-yl]oxolan-2-yl}methyl 2-methylpropanoate]
WHO Clinical Progression Scale, participants in score category 0 (SARS-CoV-2 [1]; Baseline): (0.0) %
WHO Clinical Progression Scale, participants in score category 1-3 (SARS-CoV-2 [1]; Baseline): (100.0) %
WHO Clinical Progression Scale, participants in score category 4-5 (SARS-CoV-2 [1]; Baseline): (0.0) %
WHO Clinical Progression Scale, participants in score category 6-9 (SARS-CoV-2 [1]; Baseline): (0.0) %
WHO Clinical Progression Scale, participants in score category 10 (SARS-CoV-2 [1]; Baseline): (0.0) %
WHO Clinical Progression Scale, participants in score category 0 (SARS-CoV-2 [1]; Day 3): (0.3) %
WHO Clinical Progression Scale, participants in score category 1-3 (SARS-CoV-2 [1]; Day 3): (97.7) %
WHO Clinical Progression Scale, participants in score category 4-5 (SARS-CoV-2 [1]; Day 3): (1.6) %
WHO Clinical Progression Scale, participants in score category 6-9 (SARS-CoV-2 [1]; Day 3): (0.4) %
WHO Clinical Progression Scale, participants in score category 10 (SARS-CoV-2 [1]; Day 3): (0.0) %
WHO Clinical Progression Scale, participants in score category 0 (SARS-CoV-2 [1]; Day 5): (1.6) %
WHO Clinical Progression Scale, participants in score category 1-3 (SARS-CoV-2 [1]; Day 5): (95.1) %
WHO Clinical Progression Scale, participants in score category 4-5 (SARS-CoV-2 [1]; Day 5): (2.4) %
WHO Clinical Progression Scale, participants in score category 6-9 (SARS-CoV-2 [1]; Day 5): (0.9) %
WHO Clinical Progression Scale, participants in score category 10 (SARS-CoV-2 [1]; Day 5): (0.0) %
WHO Clinical Progression Scale, participants in score category 0 (SARS-CoV-2 [1]; Day 10): (5.9) %
WHO Clinical Progression Scale, participants in score category 1-3 (SARS-CoV-2 [1]; Day 10): (89.0) %
WHO Clinical Progression Scale, participants in score category 4-5 (SARS-CoV-2 [1]; Day 10): (4.0) %
WHO Clinical Progression Scale, participants in score category 6-9 (SARS-CoV-2 [1]; Day 10): (1.0) %
WHO Clinical Progression Scale, participants in score category 10 (SARS-CoV-2 [1]; Day 10): (0.0) %
WHO Clinical Progression Scale, participants in score category 0 (SARS-CoV-2 [1]; Day 15): (15.2) %
WHO Clinical Progression Scale, participants in score category 1-3 (SARS-CoV-2 [1]; Day 15): (81.9) %
WHO Clinical Progression Scale, participants in score category 4-5 (SARS-CoV-2 [1]; Day 15): (2.2) %
WHO Clinical Progression Scale, participants in score category 6-9 (SARS-CoV-2 [1]; Day 15): (0.6) %
WHO Clinical Progression Scale, participants in score category 10 (SARS-CoV-2 [1]; Day 15): (0.0) %
WHO Clinical Progression Scale, participants in score category 0 (SARS-CoV-2 [1]; Day 29): (48.4) %
WHO Clinical Progression Scale, participants in score category 1-3 (SARS-CoV-2 [1]; Day 29): (50.2) %
WHO Clinical Progression Scale, participants in score category 4-5 (SARS-CoV-2 [1]; Day 29): (0.9) %
WHO Clinical Progression Scale, participants in score category 6-9 (SARS-CoV-2 [1]; Day 29): (0.3) %
WHO Clinical Progression Scale, participants in score category 10 (SARS-CoV-2 [1]; Day 29): (0.2) %
WHO Clinical Progression Scale, odds ratio (95% CI) (SARS-CoV-2 [1]; Day 3): 1.19 (0.62, 2.30)
WHO Clinical Progression Scale, odds ratio (95% CI) (SARS-CoV-2 [1]; Day 5): 1.52 (0.96, 2.39)
WHO Clinical Progression Scale, odds ratio (95% CI) (SARS-CoV-2 [1]; Day 10): 1.58 (1.14, 2.20)
WHO Clinical Progression Scale, odds ratio (95% CI) (SARS-CoV-2 [1]; Day 15): 1.36 (1.03, 1.78)
WHO Clinical Progression Scale, odds ratio (95% CI) (SARS-CoV-2 [1]; Day 29): 1.04 (0.84, 1.29)
hematological, pancreatic, or hepatic parameters (SARS-CoV-2 [2]; Part 1, as a function of dose or treatment): no clinically meaningful abnormalities
dose-limiting toxicity (SARS-CoV-2 [2]; highest dose (800 mg), eDMC review of IA2 data): no dose-limiting toxicity was observed
SARS-CoV-2 VL compared with placebo (SARS-CoV-2 [2]; in vivo): reduces the SARS-CoV-2 VL compared with placebo
tolerability (SARS-CoV-2 [2]; non-hospitalized participants in Part 1): well-tolerated
proportion of participants who had a COVID-19-related acute care visit (SARS-CoV-2 [3]; [5]): 6.6%
proportion of participants who had an acute care visit (SARS-CoV-2 [3]; [5]): 7.2%
RRR, COVID-19-related acute care visit (SARS-CoV-2 [3]; MITT population, vs placebo): 33.8%
RRR, acute care visit (SARS-CoV-2 [3]; MITT population, vs placebo): 32.1%
RRR, all respiratory interventions (SARS-CoV-2 [3]; MITT population, vs placebo): 34.3%
RRR, high-flow heated and humidified device (SARS-CoV-2 [3]; MITT population, vs placebo): 26.1%
RRR, invasive mechanical ventilation (SARS-CoV-2 [3]; MITT population, vs placebo): 64.1%
RRR, noninvasive mechanical ventilation (SARS-CoV-2 [3]; MITT population, vs placebo): 75.4%
RRR, oxygen therapy with conventional oxygen (SARS-CoV-2 [3]; MITT population, vs placebo): 23.6%
mean change from baseline in CRP values versus placebo (SARS-CoV-2 [3]; [6]): earlier and larger reductions
mean change from baseline in SpO2 values versus placebo (SARS-CoV-2 [3]; [6]): earlier and larger improvements
median time to hospital discharge (SARS-CoV-2 [3]; subgroup hospitalized after randomization): 9 days
RRR, all respiratory interventions (SARS-CoV-2 [3]; [7]): 21.3%
RRR, conventional oxygen (SARS-CoV-2 [3]; [7]): 12.8%
RRR, high-flow heated and humidified device (SARS-CoV-2 [3]; [7]): −4.7%
RRR, invasive mechanical ventilation (SARS-CoV-2 [3]; [7]): 49.2%
RRR, noninvasive mechanical ventilation (SARS-CoV-2 [3]; [7]): 65.1%
deaths through Day 29 (SARS-CoV-2 [4]; Part 2 interim analysis): No participants in the Compound A group died; also recorded: No deaths were reported
relative reduction in the percentage of participants hospitalized or died through Day 29 (SARS-CoV-2 [4]; Part 2 interim analysis): ~50%
treatment difference (Compound A minus placebo) in hospitalization or death at day 29 (SARS-CoV-2 [4]; Part 2 interim analysis (28 of 385 vs 53 of 377), MITT): −6.8 percentage points
hazard ratio for hospitalization/death through Day 29 (SARS-CoV-2 [4]; Part 2 interim analysis, MITT): 0.51
reduction in the risk of hospitalization/death through Day 29 (time-to-event analysis) (SARS-CoV-2 [4]; Part 2 interim analysis, MITT): ~50%
participants hospitalized or died through Day 29 (SARS-CoV-2 [4]; [8]): 7.3%
reduction in the risk of hospitalization or death through Day 29 compared with placebo (SARS-CoV-2 [4]; [8]): 6.8 percentage point
participants hospitalized or died through Day 29 (SARS-CoV-2 [4]; Part 2 interim analysis, subgroup positive for SARS-CoV-2 antibodies at baseline): 2.9%
progression of COVID-19 signs/symptoms (SARS-CoV-2 [4]; [9]): lower percentage of participants in the Compound A than the placebo group reported progression
sustained improvement/resolution of self-reported COVID-19 signs/symptoms (SARS-CoV-2 [4]; [9]): higher percentage of participants in the Compound A group achieved earlier sustained improvement/resolution
